For experiment [1], the system named is SW480 cells. As to the kind of experiment: Cell death induction (Annexin V/FITC and PI), SW480. The conditions noted are these: 48 h. It counts as cell-based, human. An excerpt: All assays were repeated twice.
Another experiment deals with caspase-3. The experiment in a line: Apoptotic biomarker ELISA, caspase-3 in SW620 cells. Type of experiment: cell-based, human. The conditions noted are these: 48 h, IC50 concentration, versus DMSO control. An excerpt:
(§1) Afterwards, cells were scraped and lysed with Cell Lysis Buffer (1X, Ref. #9803). The supernatant was used for the determination of apoptotic biomarkers after the treatment with the hybrid molecules. Enzyme-linked immunosorbent assay (ELISA) kits were provided by Elabscience Biotechnology Co., (Wuhan, Hubei, China) (caspase-8) and Cell-Signaling Technology (Danvers, MA, USA) (caspase-3 and p53), following the manufacturer’s instructions.
A general note: In an ELISA, binding on a coated surface is turned into a signal by an enzyme label.

For experiment [2], the system named is SW620. The experiment in a line: Antiproliferative activity (sulforhodamine B), SW620. The conditions noted are these: dose- and time-dependent, from day 2 above 12.5 µM, from day 4 at 6.25 µM. Type of experiment: cell-based, human. As for the experimental part: (§2) Briefly, cells were seeded at 20,000 cells/well (for cytotoxicity assay) and 2500 cells/well (for the antiproliferative test) in 96-well tissue culture plates, incubating at 37 °C in a humidified atmosphere with 5% CO2. After the adaptation time (24 h), cells were treated with increasing concentrations of the hybrid molecules or DMSO (1%). At the end of each treatment, cells were fixed with trichloroacetic acid (50% v/v; MERCK) for one hour at 4 °C. Subsequently, cell proteins were stained with SRB (0.4% w/v; Sigma-Aldrich, United States) and washed with acetic acid (1%). After drying at room temperature, Tris-base (10 mM) was added to solubilize protein bound stain. Absorbance was read in a microplate reader (Mindray MR-96A) at 492 nm. All experiments were performed at least in duplicate.

Experiment [3] concerns SW480 cells. As to the kind of experiment: Mitochondrial membrane potential and plasma membrane integrity (DiOC6/PI), SW480. The conditions noted are these: 48 h, IC50 concentration. It counts as cell-based, human. As for the experimental part: (§3) The fluorescent dyes DiOC6 (3,3′-dihexyloxacarbocyanine iodide, Thermo Fisher Scientific, Waltham, MA, USA) and propidium iodide (PI) were used to evaluate possible changes in mitochondrial membrane potential induced by the hybrid molecules. Then, 2.5 × 10^5 cells/well were seeded in 6-well tissue culture plates and allowed to grow for 24 h. Then, these were treated with hybrids 4a and 4g (with the IC50 value for each compound). Cells were harvested by scrapping 48 h after treatment, stained with DiOC6 and propidium iodide (PI) at room temperature for 30 min in darkness. Flow cytometric analysis of 10,000 events was carried out to quantify cells with mitochondrial depolarization, excitation at 488 nm and detection of the emission with the green (530/15 nm) and the red (610/20 nm) filters.

In experiment [4] the test system is SW620 cells. As to the kind of experiment: Mitochondrial membrane potential and plasma membrane integrity (DiOC6/PI), SW620. Type of experiment: cell-based, human. The following applies: 48 h, IC50 concentration. As to the method:
as §3

The subject of experiment [5] is SW620 cells. As to the kind of experiment: Cell cycle distribution (PI, flow cytometry), SW620. Type of experiment: cell-based, human. The conditions noted are these: 48 h, IC50 concentration, versus DMSO control. As for the experimental part:
(§4) Cell cycle analysis was evaluated by flow cytometry using propidium iodide (PI). This experiment was carried out as previously described by Nicoletti et al. (1991). Then, 48 h after treatment with the IC50 value of the hybrids 4a, 4g and DMSO (1%) as a vehicle control, cells were collected by scraping and centrifugation, resuspending the cell pellet in a versene buffer. Thereafter, cells were fixed with 1.8 mL cold ethanol (70%) at 4 °C overnight. Alcohol was removed by subsequent washing twice with versene buffer. The final pellet was resuspended in 300 µL of PBS with 0.25 mg/mL RNAse (Type I-A, Sigma-Aldrich, Germany) and 0.1 mg/mL PI and incubated for 30 min in the dark at room temperature. FACS Canto II flow cytometer (BD Biosciences, USA) was used to read the PI fluorescence of 10,000 events. The analysis of data was performed with the software FlowJo 7.6.2 (Ashland, OR, USA).
For orientation: A flow cytometer gives signals particle by particle.

Experiment [6] has as its system SW480. As to the kind of experiment: Antiproliferative activity (sulforhodamine B), SW480. The conditions noted are these: dose- and time-dependent, from day 2 above 12.5 µM, from day 4 at 6.25 µM. It counts as cell-based, human. As to the method:
as §2

In experiment [7] the test system is SW620. The experiment in a line: Sulforhodamine B cytotoxicity assay, SW620. The following applies: 48 h. It counts as cell-based, human. As for the experimental part: (§5) Two colon cancer cells (SW480 and SW620) and non-malignant cell lines (human keratinocytes, HaCaT; chinese hamster ovary, CHO-K1) were obtained from The European Collection of Authenticated Cell Cultures (ECACC, England). For biological evaluations, cells were cultured in Dulbecco’s Modified Eagle Medium, supplemented with 10% heat-inactivated (56 °C) horse serum, 1% penicillin/streptomycin and 1% non-essential amino acids (Gibco Invitrogen, Carlsbad, CA, USA). During the treatments, the serum was reduced to 3%, and the medium was supplemented with insulin ([…]) transferrin ([…]) and selenium (5 ng/mL) (ITS-defined medium; Gibco, Invitrogen, Carlsbad, USA). To avoid Mycoplasma spp. contamination, cell cultures were regularly tested by polymerase chain reaction.
as §2
On the technique in general: The SRB assay estimates cell density from bound dye.

A further experiment concerns HaCaT. As to the kind of experiment: Sulforhodamine B cytotoxicity assay, HaCaT. It counts as cell-based, human. The conditions noted are these: Homo sapiens, HaCaT; 48 h; mean ± SE; non-malignant cells. As to the method: as §5, §2
The subject of experiment [8] is SW480 cells. The experiment in a line: Cell cycle distribution (PI, flow cytometry), SW480. The following applies: 48 h, IC50 concentration. It counts as cell-based, human. As for the experimental part: as §4
Experiment [9] deals with SW480. The experiment in a line: Sulforhodamine B cytotoxicity assay, SW480. The conditions noted are these: 48 h. It counts as cell-based, human. As to the method:
as §5, §2

For the next experiment, the system named is caspase 8. As to the kind of experiment: Apoptotic biomarker ELISA, caspase 8 in SW620 cells. Type of experiment: cell-based, human. The conditions noted are these: 48 h, IC50 concentration, versus DMSO control.
Text: as §1

The subject of experiment [10] is SW620 cells. As to the kind of experiment: Cell death induction (Annexin V/FITC and PI), SW620. The following applies: 48 h.
Protocol: SW480 and SW620 cells were treated for 48 h and further collected by scraping. After centrifugation, the cell pellet was resuspended in Annexin V/FITC–PI and incubated in darkness for 20 min. Data were obtained through flow cytometry and analyzed with FlowJo 7.6.2 (Ashland, OR, USA). […] Cells with positive staining for PI were considered dead cells, late apoptotic cells, necroptotic cells or secondary necrotic cells. All assays were repeated twice [56].
For another experiment, the system named is CHO-K1. As to the kind of experiment: Sulforhodamine B cytotoxicity assay, CHO-K1. Type of experiment: cell-based, chinese hamster. The following applies: Cricetulus griseus, CHO-K1; 48 h; mean ± SE; non-malignant cells. As for the experimental part:
as §5, §2

Experiment [11] concerns tumor suppressor protein p53. As to the kind of experiment: Apoptotic biomarker ELISA, p53 in SW620 cells. The following applies: 48 h, IC50 concentration, versus DMSO control. It counts as cell-based, human.
Text: as §1

The next experiment concerns T47D. More on the design: method as in PMID 21389782. The conditions noted are these: ER-positive breast cancer cell line; cited from earlier work.
The subject of a further experiment is MCF-7. Also noted: method as in PMID 21389782. The conditions noted are these: ER-positive breast cancer cell line; cited from earlier work.
A further experiment relates to 21PT. More on the design: method as in PMID 21389782. The conditions noted are these: ER-positive breast cancer cell line; cited from earlier work.
The subject of another experiment is FL. The following applies: cited from earlier work.
The next experiment relates to normal VERO cells. The conditions noted are these: cited from earlier work.
The next experiment deals with Hep-G2. The following applies: cited from earlier work.
A further experiment concerns LU-1. The conditions noted are these: cited from earlier work.
The test system of a further experiment is RD. The following applies: cited from earlier work.
The test system of experiment [12] is SW480 cells. More on the design: method as in earlier work. The conditions noted are these: 48 h post-treatment with 300 µM; cited from earlier work.

The source of these data is paper PMC9606943, “Synthesis and Chemopreventive Potential of 5-FU/Genistein Hybrids on Colorectal Cancer Cells” (Pharmaceuticals, 2022).

In the case of `O=c1[nH]c(=O)n(Cc2cn(CCOc3cc(O)c4c(=O)c(-c5ccc(O)cc5)coc4c3)nn2)cc1F` [4a, 5-fluoro-1-((1-(3-((5-hydroxy-3-(4-hydroxyphenyl)-4-oxo-4H-chromen-7-yl)oxy)ethyl)-1H-1,2,3-triazol-4-yl)methyl)pyrimidine-2,4(1H,3H)-dione], the “Plasma membrane integrity / cell death” value in the experiment on SW480 cells [1] and with SW620 cells [10] was “caused a loss in membrane integrity” in each case. Also, the “Protein levels of caspase-3” value with caspase-3 is on record as “significant increase in the active form of caspase-3”. In addition, the “Antiproliferative activity (cell viability)” value with SW620 [2] and in the experiment with SW480 [6] was “significant decrease in the percentages of cell viability” each time. The “Change in mitochondrial membrane potential” value in the experiment on SW480 cells [3] and in the experiment on SW620 cells [4] was “do not induce significant changes in mitochondrial membrane potential” throughout. In addition, the “Effect on cell cycle distribution” value with SW620 cells [5] is “important decrease in the population of cells in S-phase with a slight increase in G0/G1”; in the experiment with SW480 cells [8] (versus DMSO control), “important decrease in the population of G0/G1 after treatment with hybrid 4a, with a consequent increase in S-phase and G2/M”. For the same molecule, the “Selectivity Index (SI) CHO-K1/620” value with SW620 [7] is listed as 1.41. For the same molecule, in the experiment with SW620 [7], the “Selectivity Index (SI) HaCaT/SW620” value is 1.28. For the same molecule, the IC50 (in general, the concentration that inhibits the measured activity by half) in the experiment on SW620 [7] (Homo sapiens, SW-620, mean ± SE) is 50.6 ± 1.33 µM; in the experiment with HaCaT it was 64.6 ± 1.07 µM; with SW480 [9] (Homo sapiens, SW480, mean ± SE) it was 62.7 ± 7.26 µM; with CHO-K1 it was 71.1 ± 10.5 µM. Further, the “Cell cycle distribution G0/G1” value in the experiment on SW480 cells [8] (representative histogram) was 46.4%. Moreover, in the experiment with SW480 cells [8] (representative histogram), the “Cell cycle distribution G2/M” value worked out at 15.4%. The “Cell cycle distribution S-phase” value in the experiment on SW480 cells [8] (representative histogram) was determined as 36.4%. The “Cell cycle distribution Sub G0/G1” value in the experiment on SW480 cells [8] (representative histogram) was 1.8%. Besides, the “Selectivity Index (SI) CHO-K1/SW480” value with SW480 [9] came out at 1.13. Moreover, in the experiment on SW480 [9], the “Selectivity Index (SI) HaCaT/SW480” value was determined as 1.03. The “Protein levels of caspase 8” value in the experiment with caspase 8 is on record as “significant increase in the levels of caspase 8”. For the same molecule, in experiment [11], the “Protein levels of tumor suppressor protein Tp53” value is given as “important changes in the levels of the tumor suppressor protein Tp53”.
Turning to `O=c1c(-c2ccc(OCCn3cc(-c4ccccc4)nn3)cc2)coc2cc(OCCn3cc(-c4ccccc4)nn3)cc(O)c12` [E], the IC50 is 0.9 µM in the experiment with T47D, 0.8 µM in the experiment on MCF-7 and 0.9 µM with 21PT.
On to `CC(C)c1ccc(/C=C/C(=O)c2cc(Cn3cc(F)c(=O)[nH]c3=O)ccc2O)cc1` [B], for which the IC50 with FL is 8.17 µM; in the experiment on normal VERO cells, 15 µM; in the experiment with Hep-G2, 4.68 µM; in the experiment on LU-1, 11.9 µM; with RD, 10.8 µM.
As to `CC(=O)Oc1ccccc1C(=O)OCCn1cc(COc2cc(O)c3c(=O)c(-c4ccc(O)cc4)coc3c2)nn1` [F], the “reduction in cell viability” value in the experiment on SW480 cells [12] is 40.49%.
